These are literature values, as cited in patent publication EP0387265B1, “USE OF 5-AMINOSALICYCLIC ACID (5-ASA) FOR THE PRODUCTION OF A PHARMACEUTICAL PREPARATION FOR USE IN REPERFUSION TREATMENT” (priority 1987, dated 1989).

Where two headings read alike, the source gives them in different places.

The conditions of data set [1]: capable of neutralizing the toxic properties of the free radicals of oxygen; 'in contrast to' means not a radical scavenger.
For data set [2] the following is noted: humans, moderate doses.
For data set [3] the following is noted: in vivo.
The conditions of data set [4]: rats.
The conditions of data set [5]: 100 or 250 mg intravenously, 6 normal test humans.
For data set [6] the following is noted: 250 mg intravenously, humans having normal coagulation.
Data set [7] has as its system reperfusion ischemic injury in the gastric mucosa. Conditions: rats.
Data set [8] has as its system acute myocardial ischemia and reperfusion injuries. The following applies: dogs; MPG together with neutrophilic antiserum; compared to a control group which received non-immune serum.
In a further data set the test system is colitis ulcerosa. The following applies: in vivo.

Regarding `Nc1ccc(O)c(C(=O)O)c1` [5-ASA, 5-aminosalicylic acid], in data set [1], the radical scavenger entry is listed as “is a radical scavenger”. In addition, the nephrotoxic effect result in [2] was “does not have any noticeable nephrotoxic effect”. Besides, in data set [3], the side effects entry is listed as “No side effects have been observed which can be related to the substance with certainty”. In addition, the nephrotoxic effect result in data set [4] is listed as “nephrotoxic effect has been demonstrated”. Further, in data set [5], the distribution volume is 0.4 L/kg and the half-life was 35 min. Besides, in data set [6], the effect of fibrinolysis result was “has not been found to result in any effect” and the “effect of the thrombocyte function” value was “has not been found to result in any effect”. Moreover, in data set [7], the “protection against reperfusion ischemic injury in the gastric mucosa” value is “offers protection”.

For the molecule `CC(S)C(=O)NCC(=O)O` (stereo not shown) [MPG, N-2-mercaptopropionyl glycine], in [8], the “reduced the infarct size” value was 63%.

`CC(=O)Oc1ccccc1C(=O)O` [acetylsalicylic acid]: the “effect against colitis ulcerosa” value in the data set on colitis ulcerosa is “no effect”.

As for `O=C([O-])c1ccccc1O.[Na+]` [sodium salicylate], the “effect against colitis ulcerosa” value with colitis ulcerosa was “no effect”.

Consider `Nc1ccc(S(=O)(=O)Nc2ccccn2)cc1` [sulfapyridine], for which the “protection against reperfusion ischemic injury in the gastric mucosa” value in data set [7] is listed as “not”.
